Patent US7271239B2, “D-isomers of antimicrobial peptide” (The Research Foundation of State University of New York, priority 2004, dated 2007)
≈ marks a conversion by molar mass, not a printed value. Where “and” joins values, the source holds several entries; their conditions need not be identical. Identical values can stand only once. Like-named read-outs stand apart in the source and are kept apart here. Where a SMILES comes first, the peptide text is derived from it. Where no end group is shown, it is not given here. [ ]: non-standard residue; d: D form.

Assays:
S. mutans = assay: microbe, parasite or virus in culture
From the text: (§1) The bacteria used in this study included Streptococcus mutans ATCC10449, Streptococcus mutans AU 159, Streptococcus mutans GS-5, Streptococcus mutans GS-5 mutant (^gtf BCD), Streptococcus gordonii Challis, Porphyromonas gingivalis W50, Porphyromonas gingivalis 381, A. actinomycetemcomitans NCTC 9710, Pseudomonas aeruginosa ATCC 17648, and Escherichia coli HB101. One quarter strength (25%) of brain heart infusion broth (BHI, DIFCO Laboratories, Detroit, Mich.) was used for the growth of S. mutans, S. gordonii, A. actinomycetemcomitans, Ps. aeruginosa, and E. coli. For growth of P. gingivalis, tryptic soy broth-yeast extract medium (TSBY, DIFCO Laboratories, Detroit, Mich.) supplemented with cysteine hydrochloride (0.05%), menadione (0.02 μg/ml), hemin (5 μg/ml), and potassium nitrate (0.02%) was used. All bacteria were cultured at 37° C.; Ps. aeruginosa and E. coli were grown aerobically, and the other bacteria, anaerobically. To prepare bacterial cell suspension for antibacterial activity assays, each overnight culture was harvested by centrifuge (3783 g, 10 min), washed once with 10 mM sodium phosphate-buffered saline (PBS, pH 7.2), resuspended in PBS and adjusted to a concentration of 1×10^6 cells/mL.
(§2) MICs of the peptides were determined by broth microdilution method as previously described (5). Briefly, two-fold serial dilutions of each peptide were prepared with 25% BHI medium at a volume of 200 μl per well in 96-well flat-bottom microtiter plates (Costar, Cambridge, Mass.). The final concentration of the peptides ranged from 0.78 to 100 μM, and chlorhexidine (CHX), used as a positive control, from 20 to 0.16 μM (10 to 0.078 μg/mL). The microtiter plate was inoculated with bacterial cell suspension with final concentration of 5×10^6 CFU/mL for P. gingivalis and 5×10^5 CFU/mL for the other bacterial species. After incubation at 37° C. for 48 h, the absorbance was measured at 595 nm by using a microplate reader (Model 3550, Bio-Rad, Japan) to assess the cell growth. […] The MIC value represents the median of at least three independent experiments. The minimal bactericidal concentration (MBC) was determined as follows. Aliquot (100 μl) of cell suspension was taken from two wells above MIC, centrifuged, and washed three times with PBS. Then each cell suspension was plated on TSBY agar plate, and bacterial cells were enumerated after incubation at 37° C. for 48 h. The MBC was defined as the lowest concentration of the peptide at which more than 99.9% of cells were killed compared to non-treated control.

[1] = tested on: Ps. aeruginosa ATCC 17648; assay: microbe, parasite or virus in culture; format: cell-based, Pseudomonas aeruginosa; details: for MBC / MIC: Pseudomonas aeruginosa, ATCC17648
From the text: as §1, §2

E. coli HB101 = assay: microbe, parasite or virus in culture; format: cell-based, Escherichia coli; details: for MBC / MIC: Escherichia coli, HB101
From the text: as §1, §2

[2] = tested on: S. mutans GS-5 1-day biofilm; format: cell-based, Streptococcus mutans
Method: FIG. 12. Effect of peptides on 1-day biofilm of S. mutans. One-day mature biofilm was prepared as described above. BHI medium supplemented with 1% sucrose (BHIS) with peptides, prepared in another microtiter plate, was then transferred to the biofilm plate. After further incubation at 37° C. for 24 h, the biofilm was fixed, stained, and quantified as describe above. Data represents mean and SD of two independent tests performed in duplicated. Empty bar: growth, solid bar: biofilm.
To examine the effects of the peptides on 1-day mature biofilm, S. mutans GS-5 was inoculated into the wells of another polystyrene microtiter plate containing BHIS at a volume of 200 μl per well. After incubation at 37° C. for 24 h, the culture supernatants from each well were decanted and planktonic cells were removed by washing with PBS. BHIS containing 0.78 to 100 μM peptides, prepared in another microtiter plate, was then transferred to the 1-day biofilm plate, and further incubated at 37° C. for one day. The biofilm was fixed, stained, and quantified as describe above.

[3] = Stability of peptides in saliva (SDS-PAGE); format: in vitro ADME, human
Method: FIGS. 3A and 3B. Stability of antimicrobial peptides in (3A) Trypsin and (3B) unclarified saliva. Each peptide (3 μg in 5 μl of 0.5 M Tris-HCl buffer pH 7.5) was incubated with: 0.2 μg/ml trypsin containing PIC or no PIC for 0.5 h; or saliva (10 μl) for 1 h. The control of each compound was also incubated with Tris-HCl buffer in parallel. The samples were analyzed by 13% SDS-PAGE. The gel was stained with Coomassie brilliant blue and further analyzed for the peptide degradation by GS-700 Imaging Densitometer. The degradation was estimated by the equation: 1−(density of test band/density of control band)×100%. Ctrol: each peptide alone; T: trypsin plus peptide; T+PIC: trypsin containing PIC plus peptide; S: saliva plus peptide; S+PIC: saliva containing PIC plus peptide.
Stability of peptides in saliva and susceptibility of septides to trypsin. Three microliters of each peptide (MUC7 12-mer-D, MUC7 12-mer-L, Hsn5 12-mer, or Magainin-II, at 1 μg/μl in 0.2 M Tris-HCl buffer pH 7.5) were incubated with 11 μl of 0.2 μg/ml trypsin or saliva. This gave a final concentration of 0.16 μg/ml for trypsin, and 0.2 μg/μl for peptides (or 127, 127, 128, and 81 μM, for MUC7 12-mer-D, MUC7 12-mer-L, Hsn5 12-mer, or Magainin II, respectively). The reactions, without PIC (water instead or PIC) or with 1×PIC [50% (v/v)] were incubated 0.5 h with trypsin, and 1 hr with saliva (clarified or unclarified) at 37° C. The control of each compound was also incubated with Tris-HCl buffer in parallel. The samples were analyzed by 13% SDS-PAGE. Gels was stained with Coomassie brilliant blue R-250 and further analyzed for the peptide degradation by GS-700 Imaging Densitometer (Bio Red). The degradation was estimated by the equation: 1−(density of test band/density of control band)×100%.

[4] = lowest concentration with 50% or more eradication of 1-day biofilm
[5] = median of four strains (GS-5, GS-5 gtfBCD, AU 159, ATCC10449), 25% BHI, 48 h

Molecule	MBEC50 (μg/ml) [2] [µg/mL]	MBEC50 (μM) [2, 4] [µM]	degradation by saliva [3]	MBC (μM) (S. mutans; median of four strains) [µM]	MIC (S. mutans; [5]) [µM]	MBC (μM) ([1]; ATCC 17648) [µM]	MBC (μg/ml) ([1]; ATCC 17648) [µg/mL]	MIC (μM) ([1]; ATCC 17648) [µM]	MBC (μM) (E. coli HB101) [µM]	MIC (μM) (E. coli HB101) [µM]	MBEC50 (μM) ([2]; GS-5 1-day biofilm, 24 h) [µM]	MIC (μg/ml) ([1]; ATCC 17648) [µg/mL]	other results
[H]/N=C(\N/C(=N/[H])NCCCCCCNC(=N)NC(=N)Nc1ccc(Cl)cc1)Nc1ccc(Cl)cc1 [Chlorhexidine, Chlorhexidine digluconate]	>10	>20	–	–	–	–	–	–	–	–	–	–	MBC (S. mutans; Streptococcus mutans): 2.5 µM and 1.2 µg/mL; MIC (S. mutans; Streptococcus mutans): 1.2 µg/mL; MIC (S. mutans; Streptococcus mutans, ATCC10449, 48 h): 2.5 µM; MBC ([1]; read-out: MBC): 10 µM; MBC ([1]; read-out: MBC (μg/ml)): 5.1 µg/mL; MIC ([1]; read-out: MIC): 10 µM; MIC ([1]; read-out: MIC (μg/ml)): 5.1 µg/mL; MBC (E. coli HB101; read-out: MBC): 2.5 µM; MBC (E. coli HB101; read-out: MBC (μg/ml)): 1.3 µg/mL; MIC (E. coli HB101; read-out: MIC): 2.5 µM; MIC (E. coli HB101; read-out: MIC (μg/ml)): 1.3 µg/mL
CC(C)C[C@@H](NC(=O)[C@@H](CS)NC(=O)[C@@H](CCCCN)NC(=O)[C@@H](Cc1ccc(O)cc1)NC(=O)[C@@H](CO)NC(=O)[C@@H](CCCCN)NC(=O)[C@H](N)CCCNC(=N)N)C(=O)N[C@H](Cc1c[nH]cn1)C(=O)N[C@H](CCCCN)C(=O)N[C@H](CCCNC(=N)N)C(=O)N[C@H](CS)C(=O)N[C@H](CCCNC(=N)N)C(=O)O [MUC7 12-mer-D] (H-[dR][dK][dS][dY][dK][dC][dL][dH][dK][dR][dC][dR]-OH; N-terminus and C-terminus assumed)	–	–	resistant to the degradation	12.5 (≈ 19.7 µg/mL)	12.5	>100	>158	100.0 (≈ 158 µg/mL)	12.5 (≈ 19.7 µg/mL)	12.5 (≈ 19.7 µg/mL)	25	–	–
CC(C)C[C@H](NC(=O)[C@H](CS)NC(=O)[C@H](CCCCN)NC(=O)[C@H](Cc1ccc(O)cc1)NC(=O)[C@H](CO)NC(=O)[C@H](CCCCN)NC(=O)[C@@H](N)CCCNC(=N)N)C(=O)N[C@@H](Cc1c[nH]cn1)C(=O)N[C@@H](CCCCN)C(=O)N[C@@H](CCCNC(=N)N)C(=O)N[C@@H](CS)C(=O)N[C@@H](CCCNC(=N)N)C(=O)O [MUC7 12-mer-L] (H-RKSYKCLHKRCR-OH; N-terminus and C-terminus assumed)	–	–	degraded	12.5 (≈ 19.7 µg/mL)	12.5	>100	>158	>100	25.0 (≈ 39.4 µg/mL)	25.0 (≈ 39.4 µg/mL)	50	>158	–
AKRHHGYKRKFH [Hsn5 12-mer]	–	–	degraded	50.0	25	>100	>158	>100	100.0	100.0	>50	>158	MBEC50 (μg/ml) ([2]; GS-5 1-day biofilm, 24 h): >78 µg/mL
GIGKFLHSAKKFGKAFVGEIMNS [Magainin-II]	>125	>50	–	50.0	25	–	–	–	12.5	12.5	–	–	degradation by saliva ([3]; unclarified saliva, 1 h, 37° C., SDS-PAGE): degraded; MIC (S. mutans; median of four strains): 61.7 µg/mL; MBC (μM) [1]: 100.0 µM; MBC (μg/ml) [1]: 246.9 µg/mL; MIC (μM) [1]: >100 µM; MIC (μg/ml) [1]: >246.9 µg/mL; MBC (μg/ml) (E. coli HB101): 30.9 µg/mL; MIC (μg/ml) (E. coli HB101): 30.9 µg/mL; eradication of 1-day developed biofilm ([2]; at or more than MBEC50): eradication was not observed
